From patent US12275731B2, “Azaindole inhibitors of wild-type and mutant forms of LRRK2” (DANA-FARBER CANCER INSTITUTE, INC., priority 2018, dated 2025)

Assays:
Test in all cases: KinomeScan profiling
Format in all cases: binding
ADCK4 = molecular target: T1, ADCK4 (Homo sapiens, UniProt Q96D53); conditions: ADCK4, 1 μM; read-out: % control
T1 construct: purchased KinomeScan®
T1 sequence (Q96D53 1-544): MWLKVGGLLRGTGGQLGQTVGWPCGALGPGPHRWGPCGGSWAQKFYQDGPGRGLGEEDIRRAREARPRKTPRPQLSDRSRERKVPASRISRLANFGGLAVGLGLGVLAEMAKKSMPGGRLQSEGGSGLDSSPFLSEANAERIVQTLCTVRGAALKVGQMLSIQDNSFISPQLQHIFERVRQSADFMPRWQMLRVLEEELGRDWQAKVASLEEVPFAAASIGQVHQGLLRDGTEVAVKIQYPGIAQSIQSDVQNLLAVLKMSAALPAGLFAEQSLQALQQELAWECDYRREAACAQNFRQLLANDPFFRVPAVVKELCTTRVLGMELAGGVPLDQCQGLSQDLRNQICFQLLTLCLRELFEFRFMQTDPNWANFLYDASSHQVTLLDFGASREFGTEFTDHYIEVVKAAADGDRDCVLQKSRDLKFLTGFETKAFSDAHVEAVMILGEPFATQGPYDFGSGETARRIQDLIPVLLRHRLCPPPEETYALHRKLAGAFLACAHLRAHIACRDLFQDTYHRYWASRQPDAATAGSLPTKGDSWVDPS
Procedure, shortened: (§1)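 Luminescence (RLU) was converted to percent of control, with DMSO set as 100% and a reference compound as 0%. Test compounds were run at 1 μM against 468 kinases. Kinases showing below 35% of control were scored as bound.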

EGFR(E746-A750del) = EGFR(E746-A750del) (Homo sapiens, UniProt P00533, DEL746-750); conditions: read-out: % control
EGFR(E746-A750del), sequence (P00533 with tags, fused parts or gaps DEL746-750): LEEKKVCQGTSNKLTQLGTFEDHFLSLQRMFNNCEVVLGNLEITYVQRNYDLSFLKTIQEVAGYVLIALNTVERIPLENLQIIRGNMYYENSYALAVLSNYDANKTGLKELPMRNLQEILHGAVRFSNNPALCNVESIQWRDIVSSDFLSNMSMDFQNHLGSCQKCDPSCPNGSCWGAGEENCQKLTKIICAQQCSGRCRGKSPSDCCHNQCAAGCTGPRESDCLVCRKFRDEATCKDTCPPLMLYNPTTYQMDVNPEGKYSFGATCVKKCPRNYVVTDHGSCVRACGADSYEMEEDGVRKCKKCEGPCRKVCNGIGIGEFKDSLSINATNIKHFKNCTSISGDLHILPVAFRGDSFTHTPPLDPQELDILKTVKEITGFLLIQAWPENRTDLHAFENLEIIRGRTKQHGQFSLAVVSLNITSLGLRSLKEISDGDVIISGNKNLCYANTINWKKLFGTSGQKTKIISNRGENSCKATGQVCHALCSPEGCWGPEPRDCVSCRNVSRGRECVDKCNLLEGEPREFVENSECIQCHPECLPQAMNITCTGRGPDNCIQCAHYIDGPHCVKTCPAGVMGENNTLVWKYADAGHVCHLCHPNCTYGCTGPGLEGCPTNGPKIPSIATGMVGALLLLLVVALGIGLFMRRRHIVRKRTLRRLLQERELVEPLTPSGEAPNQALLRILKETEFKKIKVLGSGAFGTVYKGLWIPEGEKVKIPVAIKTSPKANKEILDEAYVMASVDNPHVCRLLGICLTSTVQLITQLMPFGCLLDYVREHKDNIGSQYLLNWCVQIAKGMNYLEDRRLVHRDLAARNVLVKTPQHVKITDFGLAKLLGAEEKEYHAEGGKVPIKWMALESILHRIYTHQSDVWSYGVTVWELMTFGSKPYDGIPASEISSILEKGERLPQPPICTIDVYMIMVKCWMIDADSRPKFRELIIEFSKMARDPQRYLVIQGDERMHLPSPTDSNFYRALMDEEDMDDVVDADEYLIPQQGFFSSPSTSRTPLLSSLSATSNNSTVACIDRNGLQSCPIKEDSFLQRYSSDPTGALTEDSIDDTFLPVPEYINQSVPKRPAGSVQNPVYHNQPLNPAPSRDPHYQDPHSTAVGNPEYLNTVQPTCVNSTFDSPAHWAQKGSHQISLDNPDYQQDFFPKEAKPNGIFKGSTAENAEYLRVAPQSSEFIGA
Procedure, shortened: as §1

DCAMKL1 = molecular target: T2, DCAMKL1 (Homo sapiens, UniProt O15075); conditions: DCAMKL1, 1 μM; read-out: % control
T2 sequence (O15075 1-740): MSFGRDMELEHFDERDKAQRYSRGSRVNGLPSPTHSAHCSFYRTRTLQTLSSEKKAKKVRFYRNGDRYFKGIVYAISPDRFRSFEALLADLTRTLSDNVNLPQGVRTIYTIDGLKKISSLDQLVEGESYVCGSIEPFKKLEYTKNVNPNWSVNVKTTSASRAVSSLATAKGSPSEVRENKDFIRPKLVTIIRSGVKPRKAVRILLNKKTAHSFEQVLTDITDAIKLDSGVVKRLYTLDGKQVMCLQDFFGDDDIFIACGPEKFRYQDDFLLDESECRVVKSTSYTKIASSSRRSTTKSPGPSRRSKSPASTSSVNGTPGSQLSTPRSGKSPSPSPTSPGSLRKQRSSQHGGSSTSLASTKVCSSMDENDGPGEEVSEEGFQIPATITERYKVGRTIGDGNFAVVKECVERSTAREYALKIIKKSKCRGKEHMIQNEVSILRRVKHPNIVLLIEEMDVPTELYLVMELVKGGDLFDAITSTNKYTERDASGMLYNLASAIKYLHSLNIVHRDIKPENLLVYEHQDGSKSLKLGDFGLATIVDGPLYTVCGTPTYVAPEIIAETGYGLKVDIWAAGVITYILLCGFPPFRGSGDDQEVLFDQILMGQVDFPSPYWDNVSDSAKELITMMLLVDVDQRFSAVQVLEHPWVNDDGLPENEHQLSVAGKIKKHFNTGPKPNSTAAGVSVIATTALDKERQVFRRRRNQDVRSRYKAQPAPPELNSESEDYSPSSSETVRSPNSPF
Procedure, shortened: as §1

MARK3 = MARK3 (Homo sapiens, UniProt P27448); conditions: MARK3, 1 μM; read-out: % control
MARK3, sequence (P27448 whole entry): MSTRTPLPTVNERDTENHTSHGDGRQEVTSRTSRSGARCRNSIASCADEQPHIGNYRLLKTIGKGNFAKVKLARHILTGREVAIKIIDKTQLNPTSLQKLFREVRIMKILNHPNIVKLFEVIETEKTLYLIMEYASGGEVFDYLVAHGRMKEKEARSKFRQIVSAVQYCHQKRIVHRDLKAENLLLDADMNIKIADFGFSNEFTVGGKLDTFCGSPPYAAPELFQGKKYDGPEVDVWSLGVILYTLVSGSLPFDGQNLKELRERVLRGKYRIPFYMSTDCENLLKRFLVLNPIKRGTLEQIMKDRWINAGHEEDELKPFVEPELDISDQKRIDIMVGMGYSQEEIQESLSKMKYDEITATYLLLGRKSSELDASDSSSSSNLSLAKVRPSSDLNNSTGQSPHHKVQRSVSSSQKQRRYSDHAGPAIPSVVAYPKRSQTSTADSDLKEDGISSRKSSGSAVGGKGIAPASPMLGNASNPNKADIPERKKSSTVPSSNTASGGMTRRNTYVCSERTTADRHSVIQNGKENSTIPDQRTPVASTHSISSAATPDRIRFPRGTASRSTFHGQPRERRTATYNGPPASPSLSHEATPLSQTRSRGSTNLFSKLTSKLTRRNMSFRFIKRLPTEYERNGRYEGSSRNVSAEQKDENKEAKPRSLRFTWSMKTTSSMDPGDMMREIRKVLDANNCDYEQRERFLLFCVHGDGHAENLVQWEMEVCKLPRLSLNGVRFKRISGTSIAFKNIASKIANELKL
Procedure, shortened: as §1

TTK = molecular target: T3, TTK (Homo sapiens, UniProt P33981); conditions: read-out: % control
T3 sequence (P33981 1-857): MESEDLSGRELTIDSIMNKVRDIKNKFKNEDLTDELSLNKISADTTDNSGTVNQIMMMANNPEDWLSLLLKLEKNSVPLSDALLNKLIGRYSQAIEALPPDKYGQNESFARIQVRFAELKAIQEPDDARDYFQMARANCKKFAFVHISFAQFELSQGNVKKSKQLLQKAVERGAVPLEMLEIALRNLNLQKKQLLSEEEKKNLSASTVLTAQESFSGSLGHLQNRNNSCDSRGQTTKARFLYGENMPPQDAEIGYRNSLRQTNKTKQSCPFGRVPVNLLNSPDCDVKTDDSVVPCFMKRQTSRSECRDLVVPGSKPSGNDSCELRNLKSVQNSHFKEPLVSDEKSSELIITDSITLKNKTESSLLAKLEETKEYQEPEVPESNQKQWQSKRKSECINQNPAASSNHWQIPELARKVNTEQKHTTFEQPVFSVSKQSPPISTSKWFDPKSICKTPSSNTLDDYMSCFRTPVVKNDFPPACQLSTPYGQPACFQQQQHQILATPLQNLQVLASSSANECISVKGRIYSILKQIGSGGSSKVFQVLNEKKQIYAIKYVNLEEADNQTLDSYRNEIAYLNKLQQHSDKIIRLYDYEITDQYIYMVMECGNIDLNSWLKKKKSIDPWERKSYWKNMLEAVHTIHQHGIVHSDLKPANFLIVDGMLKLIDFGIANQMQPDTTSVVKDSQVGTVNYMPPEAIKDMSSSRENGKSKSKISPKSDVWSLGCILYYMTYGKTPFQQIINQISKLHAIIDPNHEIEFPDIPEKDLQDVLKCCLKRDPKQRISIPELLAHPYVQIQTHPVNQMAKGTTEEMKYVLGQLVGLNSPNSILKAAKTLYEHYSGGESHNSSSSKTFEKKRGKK
Procedure, shortened: as §1

DYRK1B = DYRK1B (Homo sapiens, UniProt Q9Y463); conditions: read-out: % control
DYRK1B, sequence (Q9Y463 whole entry): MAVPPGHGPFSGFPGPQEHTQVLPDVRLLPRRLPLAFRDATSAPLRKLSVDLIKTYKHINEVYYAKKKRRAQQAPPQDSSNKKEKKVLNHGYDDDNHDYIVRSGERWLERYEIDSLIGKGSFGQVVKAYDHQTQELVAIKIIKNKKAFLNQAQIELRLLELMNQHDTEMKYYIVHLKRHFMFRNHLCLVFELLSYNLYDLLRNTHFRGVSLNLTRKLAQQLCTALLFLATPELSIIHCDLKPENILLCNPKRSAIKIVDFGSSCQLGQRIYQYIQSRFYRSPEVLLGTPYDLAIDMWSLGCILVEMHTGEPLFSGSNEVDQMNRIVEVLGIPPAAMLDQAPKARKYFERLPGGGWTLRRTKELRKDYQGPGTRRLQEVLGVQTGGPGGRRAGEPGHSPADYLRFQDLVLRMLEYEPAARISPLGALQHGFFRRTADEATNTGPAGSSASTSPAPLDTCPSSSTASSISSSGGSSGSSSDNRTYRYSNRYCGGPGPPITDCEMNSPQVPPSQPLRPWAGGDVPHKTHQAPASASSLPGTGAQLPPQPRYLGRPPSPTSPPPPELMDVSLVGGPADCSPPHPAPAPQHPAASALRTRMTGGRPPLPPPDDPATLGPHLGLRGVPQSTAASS
Procedure, shortened: as §1

PIK3CA(Q546K) = molecular target: T4, PIK3CA(Q546K) (Homo sapiens, UniProt P42336, Q546K); conditions: read-out: % control
T4 construct: purchased KinomeScan® (panel service)
T4 sequence (P42336 whole entry Q546K): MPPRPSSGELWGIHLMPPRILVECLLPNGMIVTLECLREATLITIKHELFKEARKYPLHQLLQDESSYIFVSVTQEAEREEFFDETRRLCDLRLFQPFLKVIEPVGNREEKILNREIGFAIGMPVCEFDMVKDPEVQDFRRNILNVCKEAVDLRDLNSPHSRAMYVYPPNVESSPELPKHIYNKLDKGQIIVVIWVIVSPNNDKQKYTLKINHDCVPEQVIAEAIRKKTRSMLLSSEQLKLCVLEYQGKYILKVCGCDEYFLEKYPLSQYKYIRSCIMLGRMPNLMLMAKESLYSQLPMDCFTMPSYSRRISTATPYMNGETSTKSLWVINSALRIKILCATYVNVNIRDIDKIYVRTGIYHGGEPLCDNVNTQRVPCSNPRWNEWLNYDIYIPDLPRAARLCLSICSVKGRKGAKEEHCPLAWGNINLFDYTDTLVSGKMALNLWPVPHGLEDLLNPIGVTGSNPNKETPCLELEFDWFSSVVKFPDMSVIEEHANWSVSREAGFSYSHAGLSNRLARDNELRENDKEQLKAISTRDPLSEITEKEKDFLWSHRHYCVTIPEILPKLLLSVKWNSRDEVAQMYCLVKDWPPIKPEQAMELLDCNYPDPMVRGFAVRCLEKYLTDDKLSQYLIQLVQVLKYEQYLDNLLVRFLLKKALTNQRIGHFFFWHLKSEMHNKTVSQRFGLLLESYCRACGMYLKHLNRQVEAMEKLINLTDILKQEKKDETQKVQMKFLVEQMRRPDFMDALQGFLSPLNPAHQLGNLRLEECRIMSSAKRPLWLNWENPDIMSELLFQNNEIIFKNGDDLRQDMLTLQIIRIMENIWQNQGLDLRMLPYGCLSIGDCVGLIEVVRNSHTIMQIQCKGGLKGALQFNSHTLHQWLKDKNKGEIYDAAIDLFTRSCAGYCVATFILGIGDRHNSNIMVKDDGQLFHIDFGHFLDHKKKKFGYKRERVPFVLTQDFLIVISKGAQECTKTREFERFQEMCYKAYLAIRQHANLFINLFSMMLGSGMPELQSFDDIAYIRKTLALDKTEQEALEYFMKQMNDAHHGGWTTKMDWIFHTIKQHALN
Procedure, shortened: as §1

PLK3 = PLK3 (Homo sapiens, UniProt Q9H4B4); conditions: PLK3, 1 μM; read-out: % control
Procedure, shortened: as §1

PDGFRB = PDGFRB (Homo sapiens, UniProt P09619); conditions: read-out: % control
PDGFRB, sequence (P09619 33-1106): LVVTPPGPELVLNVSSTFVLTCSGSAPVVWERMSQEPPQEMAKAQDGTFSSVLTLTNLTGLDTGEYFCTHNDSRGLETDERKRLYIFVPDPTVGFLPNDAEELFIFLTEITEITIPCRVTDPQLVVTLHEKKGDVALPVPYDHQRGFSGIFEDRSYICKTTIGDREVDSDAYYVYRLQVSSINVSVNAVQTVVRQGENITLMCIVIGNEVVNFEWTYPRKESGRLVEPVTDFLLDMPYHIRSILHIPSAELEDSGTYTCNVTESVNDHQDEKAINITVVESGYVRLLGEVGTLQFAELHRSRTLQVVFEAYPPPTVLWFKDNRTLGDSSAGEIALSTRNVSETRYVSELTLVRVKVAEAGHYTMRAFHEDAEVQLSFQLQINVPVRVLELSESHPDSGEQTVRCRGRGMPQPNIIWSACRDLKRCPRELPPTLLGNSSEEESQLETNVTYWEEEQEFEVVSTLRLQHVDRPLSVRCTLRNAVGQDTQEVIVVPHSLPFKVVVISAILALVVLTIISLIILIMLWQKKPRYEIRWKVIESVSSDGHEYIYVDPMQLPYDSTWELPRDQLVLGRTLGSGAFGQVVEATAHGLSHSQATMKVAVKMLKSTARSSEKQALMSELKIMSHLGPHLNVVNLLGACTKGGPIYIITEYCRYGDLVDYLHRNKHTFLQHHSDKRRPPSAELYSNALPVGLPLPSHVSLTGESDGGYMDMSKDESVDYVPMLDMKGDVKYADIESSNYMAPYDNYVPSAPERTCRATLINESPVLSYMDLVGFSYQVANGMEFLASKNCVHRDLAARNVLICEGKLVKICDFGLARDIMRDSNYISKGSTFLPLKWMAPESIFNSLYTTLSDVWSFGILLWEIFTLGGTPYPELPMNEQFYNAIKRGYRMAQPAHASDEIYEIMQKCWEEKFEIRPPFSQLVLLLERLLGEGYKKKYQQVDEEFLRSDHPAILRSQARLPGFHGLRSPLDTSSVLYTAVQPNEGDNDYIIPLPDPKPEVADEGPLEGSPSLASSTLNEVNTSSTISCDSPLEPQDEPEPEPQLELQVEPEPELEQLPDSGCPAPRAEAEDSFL
Procedure, shortened: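 First, compounds in DMSO are added at 1 μM to each of 468 kinase assays. Next, RLU signals are normalised between positive control (0%) and DMSO (100%). Finally, kinases under 35% are flagged active.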

Row | SMILES | remaining binding at 1 µM (ADCK4) [%] | remaining binding at 1 µM (EGFR(E746-A750del)) [%] | remaining binding at 1 µM (DCAMKL1) [%] | remaining binding at 1 µM (MARK3) [%] | remaining binding at 1 µM (TTK) [%] | remaining binding at 1 µM (DYRK1B) [%] | remaining binding at 1 µM (PIK3CA(Q546K)) [%] | remaining binding at 1 µM (PLK3) [%] | remaining binding at 1 µM (PDGFRB) [%]
1 | CNc1c(-c2ccc(C(=O)N3CCC(N4CCOCC4)CC3)cc2)cnc2[nH]cc(Cl)c12 [Compound 96, (4-(3-chloro-4-(methylamino)-1H-pyrrolo[2,3-b]pyridin-5-yl)phenyl)(4-morpholinopiperidin-1-yl)methanone] | 100 | 93 | 77 | 84 | 3.6 | 100 | 100 | 99 | 21
2 | O=C(c1ccc(-c2cnc3[nH]cc(Cl)c3c2NC2CCCC2)cc1)N1CCC(N2CCOCC2)CC1 [Compound 101, (4-(3-chloro-4-(cyclopentylamino)-1H-pyrrolo[2,3-b]pyridin-5-yl)phenyl)(4-morpholinopiperidin-1-yl)methanone] | 100 | 97 | 90 | 89 | 54 | 89 | 93 | 84 | 83
3 | CNc1c(-c2cnn([C@H]3CCN(C(C)=O)C[C@@H]3F)c2)cnc2[nH]cc(Cl)c12 [Compound 77, 1-((3S,4S)-4-(4-(3-chloro-4-(methylamino)-1H-pyrrolo[2,3-b]pyridin-5-yl)-1H-pyrazol-1-yl)-3-fluoropiperidin-1-yl)ethan-1-one] | 100 | 100 | 79 | 82 | 34 | 100 | 100 | 78 | 20
